Measurements as given in patent US11092596B2, “Material and method to screen proteasome stimulators” (Purdue Research Foundation, priority 2017, dated 2021).
pEC50: −log10 of the molar value.

Tests used:
[1] = biological target: T1, chymotrypsin-like activity of the 20S CP (Homo sapiens, UniProt P28074); experiment: Kinetic assay, CT-L FRET reporter hydrolysis by purified 20S CP; assay type: biochemical; conditions: CT-L FRET reporter; for pEC50: dose response 0.78125-400 μM, triplicate, read-out: EC50 (concentration of half of the maximum stimulation) for 20S CP stimulation
T1 construct: 5 μL purified 20S proteasome (90 nM in Tris-HCl) was added to the control and test wells
Description: (§1) Plate preparation for the kinetic assay was performed similarly for all assays. All 96-well plates contained the following in triplicate: reporter background, containing reporter only, and control wells, containing reporter and purified 20S CP. It was determined that each well will contain a total volume of 50 μL. To each well was added 40 μL of the coumarin or FRET reporters (in Tris-HCl, 50 mM, pH 7.7). To the reporter background wells was added 7.5 μL Tris-HCl and 2.5 μL of the solvent in which the compound of interest was dissolved or diluted. Similarly, to the control wells was added 2.5 μL Tris-HCl and 2.5 μL of the solvent in which the compound of interest was dissolved or diluted. To the test wells was added 2.5 μL Tris-HCl and 2.5 μL of the compound of interest at a predetermined concentration. Immediately prior to running the assay on the Synergy 4 Plate Reader, 5 μL purified 20S proteasome (90 nM in Tris-HCl) was added to the control and test wells.
(§2) The Synergy 4 Plate Reader was set to heat the plate at 37° C. and read fluorescence every 2 min over a 40 min period. The excitation and emission wavelengths were set according to the reporter. For the FRET reporter, the excitation and emission wavelengths were set to 335 nm and 493 nm, respectively, corresponding to the excitation and emission wavelengths of the Edans fluorophore. For the coumarin reporter, the excitation and emission wavelengths were set to 380 nm and 460 nm, respectively.
(§3) AM-404 was used as a positive control compound to test the dose-response screening capabilities of the CT-L FRET reporter. The following concentrations of AM-404 were tested in triplicate: 50, 25, and 12.5 μM. To each well was added 40 μL 20 μM CT-L FRET (in Tris-HCl, 50 mM, pH 7.7). To the reporter background wells was added 5 μL Tris-HCl and 5 μL 1:1 Tris-HCl:DMSO. Similarly, to the control wells was added 5 μL 1:1 Tris-HCl:DMSO. To the 50 μM AM-404 test wells was added 2.5 μL Tris-HCl and 2.5 μL 1000 μM AM-404 in DMSO. To the 25 μM AM-404 test wells was added 2.5 μL Tris-HCl and 2.5 μL 500 μM AM-404 in DMSO. To the 12.5 μM AM-404 test wells was added 2.5 μL Tris-HCl and 2.5 μL 250 μM AM-404 in DMSO. Immediately prior to running the assay on the Synergy 4 Plate Reader, 5 μL purified 20S proteasome (90 nM in Tris-HCl) was added to the control and test wells. The assay was performed using the Synergy 4 plate reader as described for the general screening kinetic assay procedure.
as §3, with “Fenofibrate was” for “AM-404 was”, “a negative” for “a positive”, “of fenofibrate” for “of AM-404”, “μM fenofibrate” for “μM AM-404”, “procedure. […]” for “procedure.”

[2] = biological target: trypsin-like activity of the 20S CP (Homo sapiens, UniProt Q99436); experiment: Kinetic assay, T-L FRET reporter hydrolysis by purified 20S CP; assay type: biochemical; conditions: 25 μM compound, T-L FRET reporter; basal level set to 100%
Description: as §1
as §2, with “For the coumarin reporter, the excitation and emission wavelengths were set to 380 nm and 460 nm, respectively.” left out
Stimulation of the 20S proteasome with SDS was determined using both the coumarin and FRET reporters for the chymotrypsin-like and trypsin-like activities of the 20S CP. […] Immediately prior to running the assay on the Synergy 4 Plate Reader, 5 μL purified 20S proteasome (90 nM in Tris-HCl) was added to the control and test wells. The assay was performed using the Synergy 4 plate reader as described for the general screening kinetic assay procedure. […]
To each well was added 40 μL 20 μM T-L FRET reporter (in Tris-HCl, 50 mM, pH 7.7). […] Immediately prior to running the assay on the Synergy 4 Plate Reader, 5 μL purified 20S proteasome (90 nM in Tris-HCl) was added to the control and test wells.

Compound	pEC50 [1]	stimulation of the trypsin-like activity of the 20S CP [2]	20S CP stimulation over basal level (dose response curve) ([1]; maximum of dose response curve)
Cc1c(C)c2c(c(C)c1OC(=O)CCC(=O)O)CC[C@@](C)(CCC[C@H](C)CCC[C@H](C)CCCC(C)C)O2 [Compound 3, vitamin E succinate]	5.15	146%	
C[C@H]1[C@H](C)CC[C@]2(C(=O)O)CC[C@]3(C)C(=CC[C@@H]4[C@@]5(C)CC[C@H](O)C(C)(C)[C@@H]5CC[C@]43C)[C@H]12 [Compound 2, ursolic acid]	4.85	234%	100%
